In publication PMC6043506, “Investigating molecular interactions between oxidized neuroglobin and cytochrome c” (Scientific Reports, 2018):
Like-named read-outs stand apart in the source and are kept apart here.

Key:
Cyt c = biological target: T1, Cyt c (Equus caballus, UniProt P00004); assay: SPR qualitative comparison of peptide bindings to immobilized Cyt c; type: binding, Equine heart; settings: for SPR signal compared to PhNgb1-Wt (qualitative) / binding to Cyt c (qualitative) / binding to Cyt c compared to PhNgb2-Wt (qualitative): SPR sensorgrams, HBS-P+1% DMSO, pH 7.4, 60 s injection; for SPR signal compared to PhNgb1-Wt (qualitative) / binding to Cyt c (qualitative): Fig. 4A; for binding to Cyt c (qualitative): repeated at least two times; for binding to Cyt c compared to PhNgb2-Wt (qualitative): Fig. 4C
T1 construct: Equine heart Cyt c and dimethyl sulfoxide (DMSO) were purchased from Sigma Aldrich; purchased Sigma Aldrich; host or cells: equine heart (tissue-derived, as the product name says)
T1 sequence (P00004 whole entry): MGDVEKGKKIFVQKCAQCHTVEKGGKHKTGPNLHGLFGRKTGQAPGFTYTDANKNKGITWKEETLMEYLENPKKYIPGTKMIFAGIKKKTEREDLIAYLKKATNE
Method: The peptides were dissolved in 100% DMSO and further diluted in the running buffer (10 mM HEPES pH 7.4, 150 mM NaCl, and 0.05% v/v surfactant P20 supplemented at 1% v/v DMSO) and injected over the Cyt c-immobilized surface at various concentrations.
Equine heart Cyt c and dimethyl sulfoxide (DMSO) were purchased from Sigma Aldrich. The amine coupling kit, Series S sensor chip CM5, and HBS-P+ buffer (0.1 M HEPES, 1.5 M NaCl, and 0.5% v/v surfactant P20) were purchased from GE Healthcare.
The SPR experiments were performed using a Biacore T200 SPR instrument (GE Healthcare). Cyt c, which was used as a ligand, was immobilized onto the CM5 chip up to a level of ~9000 Response Units (RU) in the presence of 10 mM sodium acetate buffer at pH 5.5. A standard amine coupling chemistry according to the manufacturer’s recommended protocol (GE Healthcare) was used to immobilize Cyt c. HBS-P+ buffer was diluted 10X to 10 mM HEPES pH 7.4, 150 mM NaCl, and 0.05% v/v surfactant P20 (HBS-P) in ddH2O and filtered through a […] polystyrene membrane filter. HBS-P was used as the immobilization running buffer. The peptides were used as analytes to inject over the Cyt c-immobilized CM5 chip surface in various concentrations in an HBS-P+1% DMSO buffer. HBS-P+1% DMSO was used as the running buffer in the analyte-ligand binding experiments. […] All analytes were injected in duplicate in each cycle. The kinetics experiments were repeated for three times. All qualitative experiments, including inhibition experiments were repeated at least two times with the wild type peptides injected as positive controls in each experiment.
VMD[34] was used to analyze and visualize the structure and simulation trajectories. The total interaction energy was calculated using NAMD energy plugin available in VMD. Each frame in the NVT simulation trajectory was saved at every 200 ps. An atomic distance of 3.5 Å and angle cutoff of 30 degrees were used to trace hydrogen bonding and the same atomic distance of 3.5 Å was used as the cut off to analyze interfacial contacts and salt bridges. For contacts analysis, only residues that show contacts for more than 1000 frames were considered. Carma[38] was used to determine the radius of gyration (Rg) and to perform PCA as well as PCA-based cluster analyses. GraphPad prism (GraphPad Software, Inc.) was used to generate the graphs. The bonding distances between D73 (in hNgb, atom OD2) and K72 (in Cyt c, atom NZ), T77 (in hNgb, atom OG1) and K72 (in Cyt c, atom NZ), E87 (in hNgb, atom OE2) and K27 (in Cyt c, atom NZ) as well as between E86 (in hNgb, atom OE2) and K27 (in Cyt c, atom NZ) were plotted. All graphs obtained from analyses of MD simulation trajectories were averaged with 25 neighboring points and 4th order smoothing polynomial using the GraphPad prism software. Biacore T200 evaluation software version 1.0 (GE Healthcare) was used to analyze the SPR sensorgrams.

[1] = test system: PhNgb1-Wt binding to Cyt c; assay: SPR inhibition experiment: PhNgb1-Wt binding to immobilized Cyt c in presence of PCyt c; set-up: species or system Equine heart; settings: mixture of PhNgb1-Wt and PCyt c in 1:2 molar ratio, Fig. 4B, 60 s injection
Method: We conducted SPR experiments with mutated peptides. […] (hNgb) and […] (hNgb) together take part in binding to […] (Cyt c), making a strong bonding as predicted by simulations. We could not perform quantitative investigations (via determination of KD values) for the mutated peptides due to solubility issues at higher concentrations. […] This experiment further confirms the involvement of the predicted amino acid […]) in the hNgb-Cyt c complex formation. […] The SPR experiments were performed using a Biacore T200 SPR instrument (GE Healthcare). Cyt c, which was used as a ligand, was immobilized onto the CM5 chip up to a level of ~9000 Response Units (RU) in the presence of 10 mM sodium acetate buffer at pH 5.5. A standard amine coupling chemistry according to the manufacturer's recommended protocol (GE Healthcare) was used to immobilize Cyt c. HBS-P+ buffer was diluted 10X to 10 mM HEPES pH 7.4, 150 mM NaCl, and 0.05% v/v surfactant P20 (HBS-P) in ddH2O and filtered through a […] polystyrene membrane filter. HBS-P was used as the immobilization running buffer. The peptides were used as analytes to inject over the Cyt c-immobilized CM5 chip surface in various concentrations in an HBS-P+1% DMSO buffer. HBS-P+1% DMSO was used as the running buffer in the analyte-ligand binding experiments. […] All analytes were injected in duplicate in each cycle. […]

ferric Cyt c = settings: SPR, nanopore-based nanopipettes, ITC; ferric hNgb and ferric Cyt c; cited from earlier work
Source text: Electrochemical impedance spectroscopy measurements have also confirmed the formation of an hNgb-Cyt c complex. Computational docking is useful to investigate the complex formation between proteins. Several computational docking studies have bee ...

caspase 9 activation = settings: binding of Ngb to Cyt c alone, no redox reaction required, cited from earlier work
Source text: Cytochrome c (Cyt c), which is another heme protein[13], is a known Ngb binding partner[12],[14]. This mitochondrial heme protein triggers cell apoptosis during apoptotic cell signaling. During ischemic insults, the cellular apoptotic pathway is activated, leading to the release of ferric Cyt c, which is an essential component of the apoptosome, into the cytoplasm[16]–[18]. […] Importantly, this K72 residue takes part in interactions of Cyt c with apoptotic protease-activation factor-1[31]. […] There ...

MLVIDAAVANVED [PhNgb1-M1]
SPR signal compared to PhNgb1-Wt (qualitative) (Cyt c): weaker SPR signals as compared to SPR signals for PhNgb1-Wt | binding to Cyt c (qualitative) (Cyt c): bind to Cyt c

LENPKKYIP [PCyt c, peptide with amino acids L68 to P76 in Cyt c]
binding of PCyt c to immobilized Cyt c (qualitative) (Cyt c; SPR): does not bind to immobilized Cyt c | inhibition of PhNgb1-Wt binding (qualitative) [1]: diminished signal as compared to PhNgb1-Wt signal

MLVIAAAVTNVED [PhNgb1-M2]
SPR signal compared to PhNgb1-Wt (qualitative) (Cyt c): weaker SPR signals as compared to SPR signals for PhNgb1-Wt | binding to Cyt c (qualitative) (Cyt c): bind to Cyt c

SSLAAYLAS [PhNgb2-M2]
binding to Cyt c compared to PhNgb2-Wt (qualitative) (Cyt c): comparable binding

SSLEAYLAS [PhNgb2-M1]
binding to Cyt c compared to PhNgb2-Wt (qualitative) (Cyt c): stronger binding

B1: hNgb: ferric human Ngb; six-coordinated heme protein; PDB ID 4MPM (Chain B) (protein, UniProt Q9NPG2 1-151, looked up)
Neuroglobin: MERPEPELIRQSWRAVSRSPLEHGTVLFARLFALEPDLLPLFQYNCRQFSSPEDCLSSPEFLDHIRKVMLVIDAAVTNVEDLSSLEEYLASLGRKHRAVGVKLSSFSTVGESLLYMLEKCLGPAFTPATRAAWSQLYGAVVQAMSRGWDGE
modifications: ferric heme
affinity to ferric Cyt c (ferric Cyt c): micromolar affinity | effect on caspase 9 activation (caspase 9 activation): enough to suppress caspase-9 activation | effect on caspase 9 activation (caspase 9 activation; listed as Ngb): sufficient to block the Cyt c-induced caspase 9 activation
